Measurements as given in US4716222A, “Substrates for hydrolases” (Hoechst Aktiengesellschaft, priority 1984, dated 1987).

Columns and labels:
β-galactosidase [1] = target: T1, β-galactosidase (Homo sapiens, UniProt P16278); experiment: Kinetic determination of β-galactosidase activity in human urine; type: biochemical
T1 construct: from tissue; host or cells: human urine
T1 sequence (P16278 29-677): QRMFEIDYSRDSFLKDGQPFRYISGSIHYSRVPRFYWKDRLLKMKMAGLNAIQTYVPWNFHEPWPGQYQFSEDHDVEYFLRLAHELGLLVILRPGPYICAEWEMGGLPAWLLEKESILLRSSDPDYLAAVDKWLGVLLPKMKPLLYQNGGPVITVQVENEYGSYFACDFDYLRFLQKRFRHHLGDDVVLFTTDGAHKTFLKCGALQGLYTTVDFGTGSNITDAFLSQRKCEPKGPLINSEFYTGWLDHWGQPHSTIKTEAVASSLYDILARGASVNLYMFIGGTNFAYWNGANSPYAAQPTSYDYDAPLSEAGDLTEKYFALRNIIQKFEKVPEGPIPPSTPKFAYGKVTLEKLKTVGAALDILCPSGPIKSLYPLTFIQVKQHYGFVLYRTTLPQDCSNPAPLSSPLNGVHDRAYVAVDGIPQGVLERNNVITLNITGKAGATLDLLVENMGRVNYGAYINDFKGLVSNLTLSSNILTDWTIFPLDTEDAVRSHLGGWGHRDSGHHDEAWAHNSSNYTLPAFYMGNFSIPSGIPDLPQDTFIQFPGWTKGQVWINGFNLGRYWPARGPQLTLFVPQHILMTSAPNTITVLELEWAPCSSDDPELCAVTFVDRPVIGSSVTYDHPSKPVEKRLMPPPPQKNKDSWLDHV
Method: (§1) The β-galactosidase activity could be kinetically measured in human urine by the use of 2H-7-O-(β-D-galactopyranosyl)-4-methyl-8-nitrobenzopyran-2-one (compound S15). An extinction change of 4 mE/min was recorded at 23° C. and 366 nm with the use of 200 μl of buffered substrate solution and 200 μl of urine of normal concentration. […] Also, β-galactosidase in human urine could be kinetically determined by using resorufin-β-D-galactopyranoside (compound S6). […] The activity of β-glucuronidase in human urine could be kinetically measured with 2H-7-O-(β-D-glucuronopyranosyl)-4-methyl-8-nitrobenzopyran-2-one (compound S9).

IgE = experiment: Determination of IgE with a state of the art enzyme immunoassay; details: same incubation periods
Method: A substantial increase in sensitivity could be achieved using the new substrates in an enzyme immunoassay of the state of the art. In this assay the IgE concentration is determined, as a measure of an allergy by means of the indirect antibody technique. With the same incubation periods for the different substrates, an approximately 4.3-fold higher absorbance for resorufin-β-galactoside (compound S6) and an approximately 1.7-fold higher absorbance for 3-hydroxy-2-nitropyridine-β-galacto-side was measured than for the commercially available o-nitrophenyl-β-galactoside.

β-glucosidase = experiment: Specificity check with purified β-glucosidase; type: biochemical
α-glucosidase = experiment: Kinetic determination of α-glucosidase activity in human urine; type: biochemical
Description: The activity of α-glucosidase in human urine can be determined very sensitively in a kinetic test with the new substrate 2H-7-0-(α-D-glucopyranosyl)-4-methyl-8-nitrobenzopyran-2-one (compound S1, see Example 1). Since the pH optimum of α-glucosidase is 4 to 6, the activity cannot be measured kinetically with the hitherto customary substrate p-nitrophenyl α-glucopyranoside because the released nitrophenol has only a very low extinction at 405 nm (Table 1).
In contrast, with compound S1 as substrate an absorbance difference in normal human urine of 0,040 per minute could be measured in a kinetic test, and thus the automation of this determination is possible.
A further possibility for the kinetic determination of α-glucosidase activity is the use of 3-H-7-O-(α-glucopyranosyl)phenoxazin-3-one (resorufin-α-D-glucopyranoside). […] At 37°, using 400 μl reagent and 200 μl urine an absorbance difference of 0.136 α per minute was found.

β-galactosidase [2] = experiment: Cleavage of the substrate by β-galactosidase (specificity); type: biochemical
Method: (§2) The activity of the β-galactosidase in human urine could be kinetically determined by the use of 3-O-([…])-3-hydroxy-2-nitropyridine. For this purpose 0.2 ml of 10-fold concentrated normal urine was added to 1 ml of buffered substrate solution and the extinction change recorded at 405 nm and 22° C. Under these conditions an extinction difference of 1.2 mE/min was measured.
as §1

β-galactosidase [3] = target: T2, β-galactosidase (Homo sapiens, UniProt P06280); experiment: Kinetic determination of galactosidase in human urine with the α-D-galactopyranosyl nitropyridine substrate; type: biochemical; details: 0.2 ml 10-fold concentrated normal urine + 1 ml buffered substrate solution, 405 nm, 22° C.
T2 construct: from tissue; host or cells: human urine, 10-fold concentrated
T2 sequence (P06280 32-429): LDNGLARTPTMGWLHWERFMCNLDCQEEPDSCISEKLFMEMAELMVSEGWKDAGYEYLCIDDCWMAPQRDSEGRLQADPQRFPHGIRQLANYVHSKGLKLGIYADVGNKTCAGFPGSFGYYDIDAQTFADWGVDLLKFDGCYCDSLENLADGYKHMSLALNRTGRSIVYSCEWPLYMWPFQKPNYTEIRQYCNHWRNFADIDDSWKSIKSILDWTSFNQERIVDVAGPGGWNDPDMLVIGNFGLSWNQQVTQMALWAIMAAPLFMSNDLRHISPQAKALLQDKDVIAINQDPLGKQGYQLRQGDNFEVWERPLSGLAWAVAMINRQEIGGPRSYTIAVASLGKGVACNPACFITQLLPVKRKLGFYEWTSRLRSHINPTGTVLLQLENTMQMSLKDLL
Method: as §2

[4] = system: N-acetyl-β-glucosaminidase; experiment: Determination of N-acetylglucosaminidase (enzyme from ox kidney); type: biochemical
Method: The sensitivity of the substrates p-nitrophenyl N-acetylaminoglucoside and 2H-7-O-(2-acetamido-2-deoxy-D-glucopyranosyl)-4-methyl-8-nitrobenzopyran-2-one ([…]) were compared to each other using N-acetyl-β-glucosaminidase from ox kidney. To 0.5 ml of substrate solution was added 0.1 ml of an enzyme solution diluted 1:101 (Sigma) and the absorbance change determined at 22° C. and 405 or 365 nm.

N-acetylglucosaminidase = target: T3, N-acetylglucosaminidase (Homo sapiens, UniProt P06865+P07686); experiment: Kinetic determination of N-acetylglucosaminidase activity in human urine; type: biochemical; details: 365 nm, 10-fold concentrated normal urine
T3 construct: from tissue; host or cells: human urine, 10-fold concentrated
T3 sequence (P07686 122-556): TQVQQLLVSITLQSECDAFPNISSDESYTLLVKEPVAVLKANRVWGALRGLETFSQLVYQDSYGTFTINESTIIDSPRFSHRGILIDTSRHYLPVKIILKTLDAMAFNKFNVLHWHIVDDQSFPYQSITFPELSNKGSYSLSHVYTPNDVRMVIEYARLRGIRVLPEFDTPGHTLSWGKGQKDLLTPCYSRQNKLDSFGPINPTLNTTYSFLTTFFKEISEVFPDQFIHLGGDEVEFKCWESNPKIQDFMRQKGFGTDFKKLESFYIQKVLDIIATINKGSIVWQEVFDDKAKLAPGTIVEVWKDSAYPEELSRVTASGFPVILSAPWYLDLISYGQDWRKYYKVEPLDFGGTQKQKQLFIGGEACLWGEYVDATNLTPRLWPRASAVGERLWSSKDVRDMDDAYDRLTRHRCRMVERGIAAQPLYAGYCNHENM
T3 sequence (P06865 89-529): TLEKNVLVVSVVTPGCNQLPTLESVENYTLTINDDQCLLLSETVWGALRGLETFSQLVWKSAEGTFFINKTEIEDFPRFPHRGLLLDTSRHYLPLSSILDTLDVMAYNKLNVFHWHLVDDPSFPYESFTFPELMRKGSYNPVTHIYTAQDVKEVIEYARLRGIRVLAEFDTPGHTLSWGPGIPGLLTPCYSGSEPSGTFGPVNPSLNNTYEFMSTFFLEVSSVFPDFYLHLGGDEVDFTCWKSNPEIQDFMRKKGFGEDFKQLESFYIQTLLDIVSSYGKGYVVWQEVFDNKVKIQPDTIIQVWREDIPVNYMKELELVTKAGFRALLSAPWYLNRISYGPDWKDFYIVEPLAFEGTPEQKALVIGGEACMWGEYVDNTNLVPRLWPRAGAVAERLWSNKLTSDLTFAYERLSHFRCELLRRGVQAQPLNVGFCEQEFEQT
Method: The activity in human urine (10-fold concentrated) can also be kinetically determined with S8. The determination with 0.5 buffered substrate solution and 0.1 ml 10-fold concentrated normal urine at 37° C. and 365 nm gave an absorbance change of 0,023 A/min at pH 5.5 and of 0,014 A/min at pH 4.5.

β-glucuronidase = target: T4, β-glucuronidase (Homo sapiens, UniProt P08236); experiment: Determination of β-glucuronidase in human urine; type: biochemical; details: human urine concentrate, pH 5, 30° C., 366 nm
T4 construct: from tissue; host or cells: human urine concentrate
T4 sequence (P08236 23-651): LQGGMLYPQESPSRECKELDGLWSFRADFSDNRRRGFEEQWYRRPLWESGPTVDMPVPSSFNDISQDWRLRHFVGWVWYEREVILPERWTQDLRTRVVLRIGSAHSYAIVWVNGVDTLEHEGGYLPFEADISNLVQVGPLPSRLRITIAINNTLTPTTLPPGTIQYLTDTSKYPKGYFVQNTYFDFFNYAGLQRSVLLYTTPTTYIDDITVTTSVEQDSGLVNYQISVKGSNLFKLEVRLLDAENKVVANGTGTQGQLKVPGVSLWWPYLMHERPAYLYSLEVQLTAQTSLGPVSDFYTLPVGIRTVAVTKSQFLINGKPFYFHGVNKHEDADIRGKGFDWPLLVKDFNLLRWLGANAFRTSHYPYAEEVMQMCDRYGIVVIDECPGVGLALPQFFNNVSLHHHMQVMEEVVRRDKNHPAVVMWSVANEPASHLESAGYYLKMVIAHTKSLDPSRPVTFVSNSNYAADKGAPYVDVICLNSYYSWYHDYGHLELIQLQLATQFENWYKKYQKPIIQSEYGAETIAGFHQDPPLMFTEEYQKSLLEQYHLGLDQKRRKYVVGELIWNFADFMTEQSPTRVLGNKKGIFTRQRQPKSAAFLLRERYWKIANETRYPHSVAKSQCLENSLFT
Method: as §1
In this case, 0.1 ml of urine concentrate was added to 0.6 ml of buffered substrate solution and the activity recorded at pH 5, 30° C. and 366 nm. Under these conditions an absorbance difference of 0,014 A/min was measured. Consequently the determination is many times more sensitive than with the customary p-nitrophenyl substrate (Table 4).

leukocyte esterase = experiment: Determination of leukocyte esterase with test strips; type: biochemical; details: test strips immersed in leukocyte suspensions
Method: Indicator paper No. 218 supplied by Macherey-Nage, Dueren, Federal Republic of Germany, was impregnated successively with the following solutions and was dried:
(a) aqueous boric acid buffer 0.25 mol/l, pH 8
(b) tosylalanylresorufin 0.25 g dissolved in 1 l of ethyl acetate.
The drying temperature selected for solution (a) was about 80° C. and that for (b) was about 120° C. The samples used were suspensions containing various concentrations of leukocytes, into which the test strips were briefly immersed. After about 1 minute a red-violet color developed, the intensity of which depended on the concentration of leukocytes. The detection sensitivity of this test system is about 1000 leukocytes per microliter.

With `O=c1ccc2nc3ccc(O[C@@H]4O[C@H](CO)[C@H](O)[C@H](O)[C@H]4O)cc3oc-2c1` [compound S6, Resorufin-8-β-D-galactopyranoside] the absorbance change (β-galactosidase [1]; 578 nm, 37° C., human urine) was 0,0038 A/min, the absorbance change (IgE; measuring wavelength 576 nm, same sample) was 0.761 and the “fold higher absorbance than o-nitrophenyl-β-galactoside” value (IgE) was “approximately 4.3 fold”.

With `Cc1cc(=O)oc2c([N+](=O)[O-])c(O[C@H]3O[C@H](CO)[C@@H](O)[C@H](O)[C@H]3O)ccc12` [compound S1, 2H-7-O-(α-D-Glucopyranosyl)-4-methyl-8-nitrobenzopyran-2-one] the “cleavage by β-glucosidase / specificity for α-glucosidase” value (β-glucosidase) was “not cleaved by β-glucosidase” and the “absorbance difference per minute” value (α-glucosidase; normal human urine, kinetic test) was 0,040 per minute.

In the case of `O=[N+]([O-])c1ncccc1O[C@H]1O[C@H](CO)[C@H](O)[C@H](O)[C@H]1O` [compound S3, 3-O-(α-D-Galactopyranosyl)-2-nitropyridine], the “cleavage by β-galactosidase” value (β-galactosidase [2]) is reported as “not cleaved by β-galactosidase” and the extinction difference (β-galactosidase [3]) is reported as 1.2 mE/min.

For `CC(=O)N[C@H]1[C@H](Oc2ccc3c(C)cc(=O)oc3c2[N+](=O)[O-])O[C@H](CO)[C@@H](O)[C@@H]1O` [compound S8], the “absorbance change, fold greater than with p-nitrophenyl acetylaminoglucoside” value ([4]; pH 4.5) was about 36 fold, the delta A/min ([4]; pH 4.5, 22° C., 405 or 365 nm, enzyme solution diluted 1:101) was 0.266 A/min and the absorbance change (N-acetylglucosaminidase; pH 4.5, 37° C.) was 0,014 A/min. The absorbance change (N-acetylglucosaminidase; pH 5.5, 37° C.) was 0,023 A/min.

In the case of `O=c1ccc2nc3ccc(O[C@H]4O[C@H](CO)[C@@H](O)[C@H](O)[C@H]4O)cc3oc-2c1` [resorufin-α-D-glucopyranoside, 3-H-7-O-(α-glucopyranosyl)phenoxazin-3-one], the “cleavage by β-glucosidase / specificity for α-glucosidase” value (β-glucosidase) is reported as “specific substrate for α-glucosidase” and the “absorbance difference per minute” value (α-glucosidase; 37°, 400 μl reagent and 200 μl urine, 578 nm, pH 6) is reported as 0.136 per minute.

In the case of `Cc1cc(=O)oc2c([N+](=O)[O-])c(O[C@@H]3O[C@H](C(=O)O)[C@@H](O)[C@H](O)[C@H]3O)ccc12` [compound S9, 2H-7-O-(1-β-D-Glucuronopyranosyl)-4-methyl-8-nitrobenzopyran-2-one], the “delta A/min” value (β-glucuronidase) is reported as 0,014 A/min.

In the case of `Cc1ccc(S(=O)(=O)N[C@@H](C)C(=O)Oc2ccc3nc4ccc(=O)cc-4oc3c2)cc1` [tosylalanylresorufin], the detection sensitivity (leukocyte esterase) is reported as “about 1000 leukocytes per microliter”.

In the case of `Cc1cc(=O)oc2c([N+](=O)[O-])c(O[C@@H]3O[C@H](CO)[C@H](O)[C@H](O)[C@H]3O)ccc12` [compound S15, 2H-7-O-(β-Galactopyranosyl)-4-methyl-8-nitrobenzopyran-2-one], the extinction change (β-galactosidase [1]; 23° C., 366 nm, 200 μl buffered substrate solution + 200 μl urine of normal concentration) is reported as 4 mE/min and the “cleavage by β-galactosidase” value (β-galactosidase [2]) is reported as “not cleaved by β-galactosidase”.

`CC(C)C[C@H](NC(=O)OC(C)(C)C)C(=O)Oc1ccc2nc3ccc(=O)cc-3oc2c1` [Boc-Leu-resorufin] gave a detection sensitivity (leukocyte esterase) of 2000 leukocytes per microliter.
